Source: patent US20070167412A1, “HALOCOMBSTATINS AND METHODS OF SYNTHESIS THEREOF” (ARIZONA BOARD OF REGENTS, priority 2003, published 2007)
In brackets after ≈: the same amount, converted by molar mass.

Experiments:
Breast MCF-7 = test: human cancer cell growth inhibition, sulforhodamine B assay; type: cell-based; settings: Homo sapiens, MCF7; Table I; 48 hours; read-out: Human cancer cell line inhibition (GI50) Breast adn MCF-7
Method in brief: (§1)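 NCI sulforhodamine B protocol: cells exposed to compounds for 48 h, then fixed with trichloroacetic acid, stained with sulforhodamine B and read on a microplate reader.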

CNS SF268 = test: as above; type: cell-based; settings: Homo sapiens, SF-268; Table I; 48 hours; read-out: Human cancer cell line inhibition (GI50) CNS SF268
Method in brief: as §1

Colon KM20L2 = test: as above; type: cell-based; settings: Homo sapiens, KM-20L2; Table I; 48 hours; read-out: Human cancer cell line inhibition (GI50) Colon KM20L2
Method in brief: as §1

Lung-NSC NCI-H460 = test: as above; type: cell-based; settings: Homo sapiens, NCI-H460; Table I; 48 hours; read-out: Human cancer cell line inhibition (GI50) Lung-NSC NCI-H460
Method in brief: as §1

Pancreas BXPC-3 = test: as above; type: cell-based; settings: Homo sapiens, BXPC-3; Table I; 48 hours; read-out: Human cancer cell line inhibition (GI50) Pancreas-a BXPC-3
Method in brief: as §1

Prostate DU-145 = test: as above; type: cell-based; settings: Homo sapiens, DU-145; Table I; 48 hours; read-out: Human cancer cell line inhibition (GI50) Prostate DU-145
Method in brief: as §1

purified tubulin = system: T1, purified tubulin; test: inhibition of tubulin polymerization (turbidimetry); type: biochemical; settings: 10 μM tubulin, GTP 0.4 mM, 30° C., extent after 20 minutes; read-out: Inhibition of polymerization IC50 ± S.D.
T1 construct: other: 10 μM tubulin, GTP 0.4 mM, 30° C., extent after 20 minutes
Protocol: Tubulin polymerization was evaluated by turbidimetry at 350 nm using Beckman DU7400/7500 spectrophotometers as described in detail elsewhere. […] Varying concentrations of drug were preincubated with 10 μM:M ([…]) purified tubulin (See Hamel, E., et al., Separation of Active Tubulin and Microtubule-associated Proteins by Ultracentrifiigation and Isolation of a Component Causing the Formation of Microtubule Bundles, Biochemistry 1984, 23, 4173-4184). Samples were chilled on ice, GTP (0.4 mM) was added, and polymerization was followed at 30° C. The parameter measured was extent of the reaction after 20 minutes. Coichicine binding was measured as described in detail previously. Reaction mixtures contained 1.0 μM :M tubulin, 5.0:M, [^3H]colchicine (from Dupont), and inhibitor at 1.0 μM:M. Incubation was for 10 minutes at 37° C.
Tubulin Evaluations: Tubulin polymerization was evaluated by turbidimetry at […] using Beckman DU7400/7500 spectrophotometers as known to one of skill in the art. Varying concentrations of the compound were preincubated with 10 μM. […]

KAT-4 = test: human anaplastic thyroid carcinoma cell line inhibition; type: cell-based; settings: Homo sapiens, KAT-4
Protocol: (§2) Inhibition of human cancer cell growth was assessed using the National Cancer Institute's standard sulforhodamine B assay. After 48 hours, the plates were fixed with trichloracetic acid, stained with sulforhodamine B and read with an automated microplate reader. A growth inhibition of 50% (GI50 or the drug concentration causing a 50% reduction in the net protein increase) was calculated from optical density data with Inmunosoft software. Inhibition of the mouse leukemia P388 cells was assessed in a 10% horse serum/Fisher medium soution for 24 hours, followed by a 48 hour incubation with serial dilutions of the compounds. Cell growth inhibition (ED50) was then calculated using a Z1 Becleman/Coulter particle counter.

SW1736 = test: as above; type: cell-based; settings: Homo sapiens, SW-1736
Protocol: as §2

[1] = system: human umbilical vein endothelial cells (HUVEC); test: HUVEC growth inhibition, sulforhodamine B assay; type: cell-based; settings: HUVEC
Protocol: (§3) In vitro Matrigel antiangiogenesis assays were implemented according to the Developmental Therapeutics Program NCI/NIH protocols known to one of skill in the art. Matrigel, a basement membrane matrix, was obtained from BD Biosciences. Growth inhibition and cord formation assays were Conducted using human umbilical vein endothelial cells obtained from GlycoTeCh. HUVEC cells were grown in EGM-2 medium.
The standard sulforhodamine B assay (see Cancer Cell Line Procedures above) was used to evaluate results using HUVEC cells. IC50 or ED50 (drug concentration causing 50% inhibition) was calculated from the plotted data.

[2] = system: human umbilical vein endothelial cells (HUVEC); test: Matrigel cord formation assay; type: cell-based; set-up: key to Lengths of Cords: −: No Cords; +: Small; ++: ˜50% of Control; +++: Same as Control; settings: 24 hours, compared to untreated controls
Protocol: as §3
(§4) An aliquot of sixty microliters was placed in each well of an ice-cold 96-well plate. The plates were then left for 15 minutes at room temperature, then incubated for 30 minutes at 37° C. to permit the matrigel to polymerize. Meanwhile, HUVEC cells were harvested and diluted to a concentration of 2×10^5 cells/ml. A solution of 100 μL containing the compounds to be tested was added next. After 24 hours incubation, pictures were taken for each concentration using an inverted Nikon Diaphot microscope and D100 digital camera. Drug effect was assessed, compared to untreated controls, by measuring the length of cords formed and number ofjunctions.

[3] = system: human umbilical vein endothelial cells (HUVEC); test: Matrigel cord formation assay; type: cell-based; set-up: key: −: No Junctions; +: Few; ++: ˜50% of Control; +++: Same as Control; settings: 24 hours, compared to untreated controls
Protocol: as §3, §4

Work on `COc1ccc(/C=C\c2cc(I)c(OC)c(OC)c2)cc1O` [Compound 14a, 3-Iodo-4,4′,5-trimethoxy-3′-hydroxy-z-stilbene] yielded a GI50 (Breast MCF-7) of 0.22 ng/mL (≈ 0.534 nM), a GI50 (CNS SF268) of 0.35 ng/mL (≈ 0.849 nM) and a GI50 (Colon KM20L2) of 150 ng/mL (≈ 364 nM). The GI50 (Lung-NSC NCI-H460) was 0.19 ng/mL (≈ 0.461 nM), the GI50 (Pancreas BXPC-3) was 110 ng/mL (≈ 267 nM) and the GI50 (Prostate DU-145) was 0.52 ng/mL (≈ 1.26 nM). For the same compound, the IC50 (purified tubulin) was 1600 ± 200 nM, the GI50 (KAT-4) was 89 to 140 ng/mL (≈ 216 to 340 nM) and the GI50 (SW1736) was 2200 ng/mL (≈ 5340 nM). The “Relative % Growth” value ([1]; 0.00001 μg/ml) was 90%, the “Relative % Growth” value ([1]; 0.0001 μg/ml) was 18% and the “Relative % Growth” value ([1]; 0.001 μg/ml) was 14%. For the same compound, the “Relative % Growth” value ([1]; 0.01 μg/ml) was 14%, the GI50 ([1]; Homo sapiens, Table V, read-out: Human Umbilical Vein Endothelial Cell (HUVEC) Inhibition Values (GI50)) was 0.04 ng/mL (≈ 0.097 nM) and the “Lengths of Cords” value ([2]; 0.001 μg/ml) was “+”. The “Lengths of Cords” value ([2]; 0.01 μg/ml) was “−”, the Number of junctions ([3]; 0.001 μg/ml) was “+” and the Number of junctions ([3]; 0.01 μg/ml) was “−”.
